Bounds are passed on as bounds.

Usually ED50 stands for the dose that gives a 50% effect, or the effect in half of the subjects.

What all share (assay type): in vivo
Series [1] has as its system Mouse collagen-induced arthritis. Briefly: Therapeutic mouse collagen-induced arthritis (mCIA). An excerpt: Mouse Collagen-induced arthritis is a commonly used chronic, preclinical model of rheumatoid arthritis in which joint swelling and bone destruction occur following immunization with type II collagen. Reduction of disease incidence and severity has been shown previously to be predictive of disease-modification and signs and symptoms mitigation, respectively, in a clinical setting.
In the therapeutic mCIA model, induction of disease incidence and severity was synchronized via LPS stimulation. Male DBA/J mice were immunized with 100 ug of bovine type II collagen (bCII) on day 0. All mice received an intraperitoneal injection of 20 μg of LPS on day 28 and disease was allowed to develop through day 34. At day 34, all mice had disease (incidence=100%) with an average severity score of seven. Dosing of compounds was initiated in the therapeutic mode on day 34 and continued through day 49. Different treatments were compared by measuring the decrease in incidence (i.e., resolution of disease) and the decrease in severity of paw swelling over time.
(§1) ED50 and ED80 values are obtained for the various parameters using four-parameter logistic fits of data. For each experiment/dose group, outliers are detected by calculating the number of standard deviations each mouse's value was from the mean of their group and then dividing by the standard deviation of the group. The means and standard deviations used in this calculation omitted the value being examined so that, if it were an outlier, it would have no influence. If the value being examined is more than 2.5 standard deviations from the mean, it was not used in the rest of the calculations.
(§2) Percent inhibition values are then calculated for each animal using the means of the vehicle and 10 mpk prednisone control groups. The individual mouse percent inhibition values are then fit to a four-parameter logistic model using the area under curve mean for each group. Since all four parameters are estimated and the lower plateau is not fixed at 0% and the upper plateau was not fixed at 100%, the ED50 and ED80 values are calculated by using an inverse calibration formula for a response equal to 50% or 80%. The designation “nd” means not determined.

The test system of the next series is LPS-induced TNFα. Briefly: 28-day mouse side-effect model, LPS-induced serum TNFα suppression. The following applies: oral gavage 28 days, LPS challenge. The method, then: (§3) 10-12 week old female Swiss Webster mice (Taconic, Germantown, N.Y., U.S.A.) weighing 27-29 grams are used in accordance with the guidelines of the Institutional Animal Care and Use Committee and in accordance with NIH guidelines on laboratory animal welfare. Mice are acclimated to the Pfizer animal facility for 3-7 days prior to being placed on study. Prednisolone and DAGR compounds are administered by oral gavage for a total of 28 days. Each treatment group generally contains 8-10 mice. To establish a dosing regimen for the studies, a pilot pharmacodynamic time course experiment is conducted to quantify TNFa repression after a single ED80 dose (determined from the acute LPS endotoxemia mouse model). […] DAGR compounds vary in their required frequency of doses.
(§4) Body weights are measured on the first and last day of each experiment. Blood samples are obtained after ˜3 weeks of dosing for steady-state pharmacokinetic analysis. To assess compound effects on LPS-induced TNF-a, all mice receive an intraperitoneal injection of LPS (Salmonella Typhosa, Sigma, St. Louis, L-7895) 2.5 hr after the last dose on day 28. Mice are sacrificed 90 min. after LPS administration. Serum samples are assayed for osteocalcin and TNFa using the Linco multiplex assay (St. Charles, Mo.) and Luminex 100 (Austin, Tex.). Samples are diluted 1:20 and the assay is run according to manufacturer's instructions. An osteocalcin standard is purchased separately from Biomedical Technologies Incorporated (Stoughton, Mass.). Serum insulin is measured to assess compound effects on insulin resistance. Insulin was measured using the UltraSensitive Mouse EIA kit from Alpco Diagnostics (Salem, N.H.) following the manufacturer's protocol.
as §1, §2

A further series has as its system osteocalcin. The series is described as follows: 28-day mouse side-effect model, serum osteocalcin suppression. Conditions: oral gavage 28 days. The method, then:
as §3, §4, §1, §2

The next series deals with bone formation rate. Briefly: 28-day mouse side-effect model, cortical bone histomorphometry (bone formation rate). The following applies: oral gavage 28 days, tibia cortical bone formation rate. The method, then: as §3
During the in-life portion of each study, mice received two IP injections of the fluorochrome calcein (C-0875; Sigma-Aldrich; 20 mg/kg; 200 μL/mouse), dissolved in 2% sodium bicarbonate, on days 1 and 26 for bone histomorphometry measurements. Fluorochrome labels incorporate into the bone mineral and allow measurement of bone formation rate. During the tissue harvest, the left tibia is excised and cleaned for cortical histomorphometry measurements. After all skin and muscle are removed, tibiae are placed in 70% ethanol (4° C.) in the dark for a minimum of 24 hours.
Ground transverse sections are used for histomorphometric analysis of cortical bone^1. Bones are sectioned using a low speed saw (Isomet, Buehler, Lake Bluff, Ill.) equipped with a diamond wafer blade. The end of each tibia is removed proximal to tibia-fibula synostosis and a […] cross-section is cut. Using a roughened glass plate and a cork, sections are ground to […] until transparent and all labels distinguishable under a fluorescent microscope. Sections are dehydrated using the following solutions for a minimum of 2 minutes each: 1) 70% ethanol, 2) 95% ethanol, 3) 100% ethanol, 4) 50/50 ethanol/xylene, and 5) xylene (twice) (Sigma, St. Louis, 534056). Sections are mounted using Eukitt Quick Mounting Medium (Sigma, St. Louis, 03989) and cover-slipped. Using the Osteomeasure Bone Analysis Program (Decatur, Ga.), bone formation rate is calculated by tracing the 1st and 2nd fluorescent labels in addition to tracing the inner and outer perimeter of the bone. Bone formation rate is calculated by the following equation: (Interlabel Width/Label Interval)*(Labeled Perimeter/Bone Perimeter). At least 5 samples are measured from each treatment group in each study.
as §1, §2

The subject of another series is serum insulin. Briefly: 28-day mouse side-effect model, serum insulin. Conditions: oral gavage 28 days. As for the experimental part: as §3, §4, §1, §2

Take `Cc1ncccc1NC(=O)c1ccc2c(c1)CC[C@@H]1C[C@@](O)(C(F)(F)F)[C@](C)(O)C[C@@]21Cc1ccccc1` [Comparator E, (4bR,6R,7S,8aR)-4b-benzyl-6,7-dihydroxy-6-methyl-N-(2-methylpyridin-3-yl)-7-(trifluoromethyl)-4b,5,6,7,8,8a,9,10-octahydrophenanthrene-2-carboxamide]: the ED50 in series [1] (816 h, dosing day 34 to 49, read-out: Therapeutic mCIA (ED50 dose)) was 0.13 mg/kg; in the series on LPS-induced TNFα (672 h, read-out: TNFα Suppression (ED50 dose)) it was above 1 mg/kg. Also, the “Therapeutic mCIA (ED80 dose)” value in series [1] (dosing day 34 to 49) is recorded as 1.15. The “TNFα Suppression (ED80 dose)” value in the series with LPS-induced TNFα was above 1. Also, the ED50 at 28 days with osteocalcin (female, Swiss Webster, read-out: Osteocalcin Suppression (ED50 dose)) was 0.78 mg/kg; in the series on bone formation rate (female, Swiss Webster, read-out: BFR (ED50 dose)), 0.28 mg/kg; in the series with serum insulin (female, Swiss Webster, read-out: Insulin (ED50 dose)), above 1 mg/kg. In addition, the “Osteocalcin Suppression (ED80 dose)” value with osteocalcin is above 1. In addition, in the series with bone formation rate, the “BFR (ED80 dose)” value turned out to be 0.33. Moreover, in the series on serum insulin, the “Insulin (ED80 dose)” value was above 1.

The values are drawn from patent publication US8552035B2, “Phenanthrenone compounds, compositions and methods” (Pfizer Inc., priority 2008, dated 2013).
